Test results from paper PMC12541620 (Acta Pharmaceutica Sinica. B, 2025).
Where two headings read alike, the source gives them in different places. Each block holds one compound with its values, some of them ahead of it.

Columns and labels:
hCES2A [1] = molecular target: T1, hCES2A (Homo sapiens, UniProt O00748); assay: hCES2A inhibition assay; format: biochemical; settings: for Ratio: IC50 3 min / IC50 33 min
T1 sequence (O00748 27-559): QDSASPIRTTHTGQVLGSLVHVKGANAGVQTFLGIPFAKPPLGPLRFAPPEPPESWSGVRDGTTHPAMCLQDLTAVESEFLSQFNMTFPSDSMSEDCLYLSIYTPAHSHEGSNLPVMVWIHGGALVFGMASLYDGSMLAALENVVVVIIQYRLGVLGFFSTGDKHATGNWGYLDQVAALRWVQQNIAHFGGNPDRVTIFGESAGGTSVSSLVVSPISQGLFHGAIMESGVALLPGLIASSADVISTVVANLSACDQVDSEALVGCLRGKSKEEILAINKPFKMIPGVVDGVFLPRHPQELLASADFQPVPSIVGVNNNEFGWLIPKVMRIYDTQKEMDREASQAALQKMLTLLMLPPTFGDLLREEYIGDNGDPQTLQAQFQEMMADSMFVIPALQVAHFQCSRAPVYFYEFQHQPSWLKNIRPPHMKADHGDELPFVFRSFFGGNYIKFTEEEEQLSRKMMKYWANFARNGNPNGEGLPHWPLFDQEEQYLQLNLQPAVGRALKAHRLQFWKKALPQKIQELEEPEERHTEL

[2] = tested on: irinotecan-triggered gut toxicity (ITGT) in tumor-bearing mice; assay: irinotecan-triggered gut toxicity in tumor-bearing mice; format: in vivo, C57BL/6J mice; settings: C3 25 and 50 mg/kg; LPA 10 mg/kg
hCES2A [3] = molecular target: T1, hCES2A; assay: dialysis assay; format: biochemical; settings: 10 μmol/L, 33 min preincubation, dialysis 2 and 4 h
hAChE = hAChE (Homo sapiens, UniProt P22303); assay: hAChE inhibition assay; format: biochemical
[4] = IC50 (nmol/L) 3 min, 3 min pre-incubation, FD substrate
[5] = IC50 (nmol/L) 33 min, 33 min pre-incubation, FD substrate

Chain of hAChE (P22303 32-614): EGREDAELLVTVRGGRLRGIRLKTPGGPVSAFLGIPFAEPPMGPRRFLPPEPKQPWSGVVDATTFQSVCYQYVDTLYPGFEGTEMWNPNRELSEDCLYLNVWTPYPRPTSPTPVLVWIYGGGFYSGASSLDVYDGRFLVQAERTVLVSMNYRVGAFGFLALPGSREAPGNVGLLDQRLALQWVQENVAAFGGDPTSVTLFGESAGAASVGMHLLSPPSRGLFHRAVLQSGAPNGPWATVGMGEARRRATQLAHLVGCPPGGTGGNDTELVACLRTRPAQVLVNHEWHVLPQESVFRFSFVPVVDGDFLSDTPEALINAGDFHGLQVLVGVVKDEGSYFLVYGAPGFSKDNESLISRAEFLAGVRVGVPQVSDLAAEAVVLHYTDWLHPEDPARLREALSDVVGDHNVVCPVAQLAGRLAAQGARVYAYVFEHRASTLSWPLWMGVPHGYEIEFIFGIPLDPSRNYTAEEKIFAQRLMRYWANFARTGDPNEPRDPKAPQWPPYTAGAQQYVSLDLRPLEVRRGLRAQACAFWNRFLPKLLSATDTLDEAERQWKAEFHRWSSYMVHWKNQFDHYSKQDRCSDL

Structure (SMILES): COc1cc2c(cc1OC)C(=O)/C(=C/c1ccc(F)cc1)C2 [Compound B1]
IC50 (hCES2A [1]): 20900 nM

Structure (SMILES): CN(C)C(=O)C(CCN1CCC(O)(c2ccc(Cl)cc2)CC1)(c1ccccc1)c1ccccc1 [LPA, loperamide]
elevated colon IL-6, IL-1β and TNF-α levels [2]: reversed | hCES2A activity after dialysis (hCES2A [3]): gradually recovering trend over time

Structure (SMILES): COc1cc2c(cc1OC)C(=O)/C(=C/c1ccccc1OC(=O)N1CCC(N3CCCCC3)CC1)C2 [Compound C8]
Ratio (hCES2A [1]): 3.25 | IC50 (hCES2A [1]; [4]): 732 ± 71.7 nM | IC50 (hCES2A [1]; [5]): 225 ± 13.4 nM

Structure (SMILES): COc1cc2c(cc1OC)C(=O)/C(=C/c1ccccc1O)C2 [Compound B7]
enhancement of anti-hCES2A effect relative to A3 (hCES2A [1]): 8.36 folds | Ratio (hCES2A [1]): 0.33 | IC50 (hCES2A [1]; [4]): 106 ± 15.5 nM | IC50 (hCES2A [1]; [5]): 325 ± 59.5 nM | IC50 (hCES2A [1]; IC50 against hCES2A, FD substrate, 3 min preincubation): 110 nM | anti-hAChE activity (hAChE): very weak anti-hAChE activity

Structure (SMILES): COc1cc2c(cc1OC)C(=O)/C(=C/c1ccccc1OC(=O)N1CCN(C)CC1)C2 [Compound C7]
Ratio (hCES2A [1]): 7.32 | IC50 (hCES2A [1]; [4]): 258 ± 37.8 nM | IC50 (hCES2A [1]; [5]): 35.3 ± 3.67 nM

Structure (SMILES): COc1cc2c(cc1OC)C(=O)/C(=C/c1ccccc1F)C2 [Compound B3]
IC50 (hCES2A [1]): 2970 nM

Structure (SMILES): COc1cc2c(cc1OC)C(=O)/C(=C/c1ccccc1Cl)C2 [Compound B2]
IC50 (hCES2A [1]): 12100 nM

More lines, now with the values ahead:

IC50 (hCES2A [1]): 290 nM
Structure (SMILES): COc1cc2c(cc1OC)C(=O)/C(=C/c1c(O)cccc1Br)C2 [Compound B20]

IC50 (hCES2A [1]): 64800 nM
Structure (SMILES): COc1cccc(/C=C2\Cc3cc(OC)c(OC)cc3C2=O)c1 [Compound B5]

IC50 (hCES2A [1]): 400 nM
Structure (SMILES): COc1cc2c(cc1OC)C(=O)/C(=C/c1cccc(OC)c1O)C2 [Compound B21]

IC50 (hCES2A [1]): 5500 nM
Structure (SMILES): COc1ccccc1/C=C1\Cc2cc(OC)c(OC)cc2C1=O [Compound B4]

IC50 (hCES2A [1]): 17900 nM
Structure (SMILES): COc1ccc(/C=C2\Cc3cc(OC)c(OC)cc3C2=O)cc1 [Compound B6]

IC50 (hCES2A [1]): 3910 nM
Structure (SMILES): COc1cc2c(cc1OC)C(=O)C(CC1CCN(Cc3ccccc3)CC1)C2 (centres unmarked) [Donepezil, reference compound]
